How the values were obtained:
Dut80α [1] = biological target: T1, Dut80α (Dubowvirus dv80alpha, UniProt A4ZF98); assay: biolayer interferometry, effect on Stl binding; settings: 0.5 mM dUPNPP; SaPIbov1 Stl analyte; pH 7.5, 5 mM MgCl2; competes with Stl
T1 construct: His6-tagged from pET-28a, E. coli BL21(DE3); homotrimer; models cover residues 2-168 (dUMP) and 2-170 (G164S)

Dutϕ11 = biological target: T2, Dutϕ11 (Staphylococcus phage phi 11, UniProt Q8SDV3); assay: biolayer interferometry, effect on Stl binding; settings: 0.5 mM dUPNPP; SaPIbov1 Stl analyte; pH 7.5, 5 mM MgCl2; competes with Stl
T2 construct: His6-tagged from pET-28a, E. coli BL21(DE3); trimeric Dut

[2] = biological target: Dut80α^WT, wild-type dUTPase of phage 80α (Staphylococcus aureus phage 80α); assay: crystal structure; Dut80α^WT with dUMP (5CCO) and Dut80α^G164S with dUPNPP-Mg (5CCT); space group P2_(1)3, one Dut molecule in the final model; trimers shown in Figure 3
[3] = biological target: Dut80α^G164S (Staphylococcus aureus phage 80α); assay: as above
Dut80α [4] = biological target: T1, Dut80α; assay: X-ray crystallography; type: binding; settings: 2.33 Å; no nucleotide added to crystallisation; active site

O=c1ccn([C@H]2C[C@H](O)[C@@H](COP(=O)(O)NP(=O)(O)OP(=O)(O)O)O2)c(=O)[nH]1 [dUPNPP, 2-Deoxyuridine-5-[(α,β)-imido]triphosphate]
biolayer interferometry, effect on Stl binding (Dut80α [1]): presence of the dUPNPP severely affects the formation of the Stl:Dut80α complex | biolayer interferometry, effect on Stl binding (Dutϕ11): dUPNPP decreased the affinity of the Stl:Dut80α complex by about one order

Dut80α^WT, wild-type dUTPase of phage 80α (enzyme)
stoichiometry N [2]: 3

Dut80α^G164S (enzyme)
stoichiometry N [3]: 3

O=c1ccn([C@H]2C[C@H](O)[C@@H](COP(=O)(O)O)O2)c(=O)[nH]1 [dUMP]
X-ray crystallography (Dut80α [4]): structure of the Dut80α^WT bound to the dUMP showed that motif V was ordered
